# Measured values taken from patent US20090317477A1, “COMBINATION OF DEHYDROEPIANDROSTERONE OR DEHYDROEPIANDROSTERONE-SULFATE WITH A GLUCOCORTICOSTEROID FOR TREATMENT OF ASTHMA, CHRONIC OBSTRUCTIVE PULMONARY DISEASE OR ALLERGIC RHINITIS” (priority 2004, published 2009).
# “And” between values parts separate entries of the source, which are not always exact repeats. Equal values may be shown once.
# Assays:
# [1] = tested on: LPS-induced secretion of TNFα from PBMC; assay: LPS-induced secretion of TNFα from PBMC; type: cell-based, human
# Protocol: Thereafter, 1 μg/ml LPS was added to induce the cytokine secretion and the mixture was incubated for 24 h at 37° C. For basal control measurements, LPS was omitted from the incubation medium. Following incubation, the samples were centrifuged at 250× g for 5 min at 4° C. and the supernatants were collected.
# The amount of secreted TNF-α present in the supernatant was quantified using an EIA detection kit (R&D systems). The photometric measurements were made with a microplate reader (Ultra, Tecan).
# The results are expressed as a percent inhibition of the control secretion induced by LPS in Table 16.
# [2] = Fine particle fraction, single-dose Acu-Breathe device into Andersen impactor; type: physicochemical; details: aerosol of dihydrate/lactose blend; Test 2; 60 L/min
# Protocol: The single-dose Acu-Breathe device is used for evaluating DHEA-S-dihydrate. Approximately 10 mg of neat DHEA-S-dihydrate powder is filled and sealed into foil blisters. These blisters are actuated into the Andersen 8-stage cascade impactor at flow rates ranging from 30 to 75 L/min with a glass twin-impinger throat. Stages 1-5 of the Andersen impactor are rinsed together to obtain an estimate of the fine particle fraction. Pooling the drug collected from multiple stages into one assay make the method much more sensitive. […] This unique feature of DHEA-S-dihydrate has not been reported in any previous literature. […] Using a carrier with a larger particle size typically improves the aerosol properties of micronized drug substances.
# Approximately 25 mg of this powder is filled and sealed in foil blisters and aerosolized using the single-dose device at 60 L/min. The aerosol results for this preliminary powder blend are satisfactory for a respiratory drug delivery system. […] This diameter is smaller than the median diameter measured for micronized DHEA-S-dihydrate by laser diffraction. Irregularly shaped particles can behave aerodynamically as smaller particles since their longest dimension tends to align with the air flow field. Therefore, it is common to see a difference between the two methods. […]
# [3] = Solubility of DHEA-S; type: physicochemical; details: 20 mM Na^+; Ksp of 1316 mM^2 (15° C.)
# Text: Inhalation of pure water can produce a cough stimulus. […] The temperature effect is weaker at high NaCl concentrations.
# [4] = Nebulizer studies (Pari ProNeb Ultra, LC Plus); type: physicochemical; details: 0.12% NaCl
# Protocol: The nebulizer is filled with 5 mL of solution and nebulization is continued until the output became visually insignificant (4½ to 5 min.). Nebulizer solutions are tested using a California Instruments AS-6 6-stage impactor with a USP throat. The impactor is run at 30 L/min for 8 s to collect a sample following one minute of nebulization time. At all other times during the experiment, the aerosol is drawn through the by-pass collector at approximately 33 L/min. The collection apparatus, nebulizer, and impactor are rinsed with mobile phase and assayed by HPLC. […] This volume is selected as the practical upper limit for use in a clinical study.
# [5] = biological target: T1, Glucocorticoid receptor (Homo sapiens, UniProt P04150); assay: Radioligand binding assay, Glucocorticoid; details: 100 μM
# T1 sequence (P04150 1-777): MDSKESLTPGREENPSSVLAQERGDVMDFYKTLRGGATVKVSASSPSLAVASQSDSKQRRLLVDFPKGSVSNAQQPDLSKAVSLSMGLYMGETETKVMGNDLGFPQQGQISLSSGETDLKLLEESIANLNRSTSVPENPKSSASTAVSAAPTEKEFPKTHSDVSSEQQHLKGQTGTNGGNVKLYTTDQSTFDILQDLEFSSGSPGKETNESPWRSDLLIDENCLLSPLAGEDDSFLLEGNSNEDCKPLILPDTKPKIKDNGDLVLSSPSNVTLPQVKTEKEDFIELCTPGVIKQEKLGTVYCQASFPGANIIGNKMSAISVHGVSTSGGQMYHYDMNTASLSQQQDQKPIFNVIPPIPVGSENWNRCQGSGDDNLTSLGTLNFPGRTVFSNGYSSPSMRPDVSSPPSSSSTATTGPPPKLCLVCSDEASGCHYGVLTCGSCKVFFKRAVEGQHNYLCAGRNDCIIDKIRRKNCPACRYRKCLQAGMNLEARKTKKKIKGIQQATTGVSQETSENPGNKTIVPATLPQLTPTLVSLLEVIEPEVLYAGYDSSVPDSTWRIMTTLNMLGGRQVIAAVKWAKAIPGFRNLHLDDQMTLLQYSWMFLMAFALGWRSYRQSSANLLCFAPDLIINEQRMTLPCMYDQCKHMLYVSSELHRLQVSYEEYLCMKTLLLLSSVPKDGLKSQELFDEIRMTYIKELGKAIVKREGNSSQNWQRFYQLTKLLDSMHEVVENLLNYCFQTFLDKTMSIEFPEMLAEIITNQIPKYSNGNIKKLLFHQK
# [6] = tested on: Glucocorticoid, Testosterone, Estrogen ERα, Estrogen ERβ, Progesterone, Vitamin D3 receptors; assay: Radioligand binding assays, steroid receptor panel (statements in words)
# [7] = tested on: Intracellular adenosine; type: in vivo, Fischer 344 rats; details: rat
# [8] = tested on: HT-29 SF cells; assay: DHEA effect on cell cycle (flow cytometry); type: cell-based, human
# Protocol: Cells are plated at 10^5/60-mm dish in duplicate. […] Cultures are trypsinized following […] and fixed and stained using a modification of a procedure of Bauer et al., Cancer Res. 46, 3173-3178 (1986). Briefly, cells are collected by centrifugation and resuspended in cold phosphate-buffered saline. Cells are fixed in 70% ethanol, washed, and resuspended in phosphate-buffered saline.
# After 24, 48, and 72 hours, cells are harvested, fixed in ethanol, and stained with propidium iodide, and the DNA content/cell is determined by flow cytometric analysis. The percentage of cells in G1, S, and G2M phases is calculated using the Cellfit cell cycle analysis program. S phase is marked by a quadrangle for clarity. Representative histograms from duplicate determinations are shown. The experiment is repeated three times.
# [9] = tested on: HT-29 SF cells; assay: Reversal of DHEA effect on cell cycle; type: cell-based, human; details: 25 μM DHEA; increasing exposure time
# [10] = tested on: HT-29 SF cells; assay: DHEA effect on cell growth
# Protocol: Cell cultures, HT-29 SF cells, which represent a subline of HY-29 cells (ATCC, Rockville, Md.) and are adapted for growth in completely defined serum-free PC-1 medium (Ventrex, Portland, Me.), are obtained. Stock cultures are maintained in this medium at 37° C. (in a humidified atmosphere containing 5% CO2).
# [11] = Solid-state stability at 50° C. with and without lactose (DHEA formed, HPLC); type: physicochemical; details: dihydrate
# Text: These conditions are used to stress the formulation in order to predict its long-term stability results. […] The primary degradant is DHEA. […] The materials on accelerated storage become more cohesive with time as evidenced by clumping during sample weighing for chemical analysis. […] This is a considerable disadvantage since lactose is the most commonly used inhalation excipient for dry powder formulations. Continuing with the virtually anhydrous form would mean limiting formulations to neat powder or undertaking more comprehensive safety studies to use a novel excipient.
# [12] = Homo sapiens, PBMC, read-out: percent inhibition of LPS-induced TNFα secretion
structure (smiles),measurement,setting,value
C[C@@H]1C[C@H]2[C@@H]3CCC4=CC(=O)C=C[C@]4(C)[C@@]3(F)[C@@H](O)C[C@]2(C)[C@@]1(O)C(=O)CO [Dexamethasone],inhibition at 0.001 µM,[1]; [12],-3%
same,inhibition at 0.01 µM,[1]; [12],4%
same,inhibition at 0.1 µM,[1]; [12],36%
"C[C@]12CC[C@H](OS(=O)(=O)[O-])CC1=CC[C@@H]1[C@@H]2CC[C@]2(C)C(=O)CC[C@@H]12.[Na+] [DHEA-S, sodium dehydroepiandrostenone sulfate]",median diameter of aerosol by cascade impaction,[2],~2.5 μm
same,calculated solubility of DHEA-S^−,[3],27.5 mM and 10.7 mg/mL
same,highest solution concentration for a clinical trial formulation (no precipitate during nebulization),[4],approximately 7.5 mg/mL
same,percent inhibition of LPS-induced TNFα secretion,[1]; DHEAS 30 μM alone,−2%
same,percent inhibition of LPS-induced TNFα secretion,[1]; DHEAS 100 μM alone,32%
same,binding to the glucocorticosteroid receptor,[5],does not bind to the glucocorticosteroid receptor
same,binding to the steroid receptors,[6],lack of effect on ligand binding on the other four receptors
"C[C@]12CC[C@H](O)CC1=CC[C@@H]1[C@@H]2CC[C@]2(C)C(=O)CC[C@@H]12 [DHEA, 3β-hydroxyandrost-5-en-17-one]",effect on adenosine across organs,[7]; daily for two weeks,multi-organ depletion of adenosine
same,cell cycle distribution,[8]; 200 μM DHEA,more rapid increase in the percentage of cells in G1 and a decreased proportion of cells in S phase after 24 hours
same,cell cycle effect,"[8]; 25, 50, 200 μM, 24-72 hours",G1 block in HT-29 SF cells in a time-and dose-dependent manner
same,effect on proportion of cells in S phase,[9],progressively reduced the proportion of cells in S phase
same,exposure time after which cell number is reduced compared to controls,[10]; 12.5 μM DHEA,72 h
same,exposure time after which cell number is reduced compared to controls,[10]; 25 μM DHEA,48 h
same,exposure time after which cell number is reduced compared to controls,[10]; 50 μM DHEA,48 h
same,exposure time after which cell number is reduced compared to controls,[10]; 200 μM DHEA,24 h
same,inhibition of growth,"[10]; 12.5-200 μM, 24-72 hours",time- and dose-dependent inhibition of growth
Nc1nc(=O)c2c([nH]1)NCC(CNc1ccc(C(=O)N[C@@H](CCC(=O)O)C(=O)O)cc1)N2C=O (mixture of isomers) [Folinic Acid],"Intracellular adenosine, Brain",[7]; in vivo,0.72 ± 0.09
same,effect of coadministration of folinic acid on steroid-mediated adenosine depletion,[7]; with DHEA or methyltestosterone,completely abrogate steroid-mediated adenosine depletion
CC12CCC3C(CC=C4CC(OS(=O)(=O)[O-])CCC43C)C1CCC2=O.[Na+] (centres unmarked) [DHEA-S dihydrate],Percent DHEA formed,"[11]; 50° C., 1 week",0.216%
same,Percent DHEA formed,"[11]; 50° C., 3 weeks",0.317%
same,Percent DHEA formed,"[11]; 50° C., 4 weeks",0.374%
same,Percent DHEA formed,"[11]; Control, sealed, 25° C., 4 weeks",0.218%
same,Percent DHEA formed,"[11]; Control, sealed, 25° C., first column (Time=0)",0.213%
